Key:
[1] = test system: HUVECS; assay: HUVEC cell viability (mts, absorbance 490 and 595 nm) after antisense with or without drug; type: cell-based, human
Experimental: HUVECS were grown for 2 days in wells after seeding at 1200 per well. Antisense oligonucleotide of Seq. ID No. 5 (4 μg/ml with lipofectin) was added in serum free medium and incubated with the cells for 4 hours. Then 100 μl of serum was added and incubation was continued overnight. The next day, 150 μl of drug solution in serum medium was added. After two days, 20 μl of mts solution was added and left for approximately 3 hours. Cell viability was determined as the difference between absorption at 490 and 595 nm.

[2] = test system: HUVECS; conditions: by the induction of apoptosis; cited from earlier work
[3] = Table 2, Drug alone (100 nM camptothecin)
[4] = Table 1 (paclitaxel series), AS 50 nM, no drug
[5] = Table 1 (paclitaxel series), AS 100 nM, no drug
[6] = Table 1 (paclitaxel series), AS 200 nM, no drug
[7] = Table 1, Drug (100 nM paclitaxel) + AS 50 nM
[8] = Table 1, Drug (100 nM paclitaxel) + AS 100 nM
[9] = Table 1, Drug (100 nM paclitaxel) + AS 200 nM
[10] = Table 2 (camptothecin series), AS 50 nM, no drug
[11] = Table 2 (camptothecin series), AS 100 nM, no drug
[12] = Table 2 (camptothecin series), AS 200 nM, no drug
[13] = Table 2, Drug (100 nM camptothecin) + AS 50 nM
[14] = Table 2, Drug (100 nM camptothecin) + AS 100 nM
[15] = Table 2, Drug (100 nM camptothecin) + AS 200 nM
[16] = Table 3 (doxorubicin series), AS 50 nM, no drug
[17] = Table 3 (doxorubicin series), AS 100 nM, no drug
[18] = Table 3 (doxorubicin series), AS 200 nM, no drug
[19] = Table 3, Drug (200 nM doxorubicin) + AS 50 nM
[20] = Table 3, Drug (200 nM doxorubicin) + AS 100 nM
[21] = Table 3, Drug (200 nM doxorubicin) + AS 200 nM
[22] = Table 1, Drug alone (100 nM paclitaxel)
[23] = Table 3, Drug alone (200 nM doxorubicin)

CC[C@@]1(O)C(=O)OCc2c1cc1n(c2=O)Cc2cc3ccccc3nc2-1 [camptothecin, reference compound]
absorbance at 490 nm [1, 3]: 0.55 | absorbance at 595 nm [1, 3]: 0.07 | concentration range that inhibits Huvecs [2]: low nanomolar range

AS: Antisense oligonucleotide of Seq. ID No. 5, reduces the effective amount of clusterin (antisense CAGCAGCAGAGTCTTCATCAT; listed as DNA, chemistry not given here)
cell viability, response to antisense in the presence of drug versus absence ([1]; FIG. 1, in the presence of 100 nM paclitaxel): greater | cell viability, response to antisense concentration ([1]; FIG. 1, paclitaxel series): dose dependent response | cell viability, response to antisense concentration ([1]; FIG. 2, camptothecin series): dose dependent response | cell viability, response to antisense in the presence of drug versus absence ([1]; FIG. 2, in the presence of 100 nM camptothecin): greater | cell viability, response to antisense concentration ([1]; FIG. 3, doxorubicin series): dose dependent response | cell viability, response to antisense in the presence of drug versus absence ([1]; FIG. 3, in the presence of 200 nM doxorubicin): greater | absorbance at 490 nm [1, 4]: 0.66 | absorbance at 595 nm [1, 4]: 0.04 | absorbance at 490 nm [1, 5]: 0.40 | absorbance at 595 nm [1, 5]: 0.09 | absorbance at 490 nm [1, 6]: 0.28 | absorbance at 595 nm [1, 6]: 0.07 | absorbance at 490 nm [1, 7]: 0.50 | absorbance at 595 nm [1, 7]: 0.09 | absorbance at 490 nm [1, 8]: 0.24 | absorbance at 595 nm [1, 8]: 0.04 | absorbance at 490 nm [1, 9]: 0.17 | absorbance at 595 nm [1, 9]: 0.05 | absorbance at 490 nm [1, 10]: 0.66 | absorbance at 595 nm [1, 10]: 0.10 | absorbance at 490 nm [1, 11]: 0.39 | absorbance at 595 nm [1, 11]: 0.06 | absorbance at 490 nm [1, 12]: 0.21 | absorbance at 595 nm [1, 12]: 0.04 | absorbance at 490 nm [1, 13]: 0.53 | absorbance at 595 nm [1, 13]: 0.07 | absorbance at 490 nm [1, 14]: 0.31 | absorbance at 595 nm [1, 14]: 0.08 | absorbance at 490 nm [1, 15]: 0.15 | absorbance at 595 nm [1, 15]: 0.05 | absorbance at 490 nm [1, 16]: 0.66 | absorbance at 595 nm [1, 16]: 0.07 | absorbance at 490 nm [1, 17]: 0.35 | absorbance at 595 nm [1, 17]: 0.05 | absorbance at 490 nm [1, 18]: 0.22 | absorbance at 595 nm [1, 18]: 0.04 | absorbance at 490 nm [1, 19]: 0.66 | absorbance at 595 nm [1, 19]: 0.06 | absorbance at 490 nm [1, 20]: 0.32 | absorbance at 595 nm [1, 20]: 0.04 | absorbance at 490 nm [1, 21]: 0.18 | absorbance at 595 nm [1, 21]: 0.02

CC(=O)O[C@H]1C(=O)[C@@]2(C)[C@H]([C@H](OC(=O)c3ccccc3)[C@]3(O)C[C@H](OC(=O)[C@H](O)[C@@H](NC(=O)c4ccccc4)c4ccccc4)C(C)=C1C3(C)C)[C@]1(OC(C)=O)CO[C@@H]1C[C@@H]2O [paclitaxel, reference compound]
absorbance at 490 nm [1, 22]: 0.53 | absorbance at 595 nm [1, 22]: 0.12 | concentration range that inhibits Huvecs [2]: low nanomolar range

COc1cccc2c1C(=O)c1c(O)c3c(c(O)c1C2=O)C[C@@](O)(C(=O)CO)C[C@@H]3O[C@H]1C[C@H](N)[C@H](O)[C@H](C)O1 [doxorubicin, reference compound]
absorbance at 490 nm [1, 23]: 0.74 | absorbance at 595 nm [1, 23]: 0.08 | concentration range that inhibits Huvecs [2]: low nanomolar range
